{"source": "patent US4492650A", "about": "“A54556 Antibiotics and process for production thereof” (Eli Lilly and Company, priority 1982, dated 1985)", "key": {"[1]": {"assay": "Solubility"}, "[2]": {"system": "Staphylococcus epidermidis EPI1", "settings": "second test, Table 13"}, "[3]": {"system": "Fusobacterium symbiosum 1470", "assay": "MIC, agar-dilution method", "format": "cell-based"}, "[4]": {"system": "Streptococcus pyogenes (Group A) C203"}, "[5]": {"system": "Peptococcus prevoti 1281", "assay": "MIC, agar-dilution method", "format": "cell-based"}, "[6]": {"system": "S. pyogenes", "assay": "In vivo protection against experimental bacterial infection in mice", "settings": "Streptococcus pyogenes, sc, two doses subcutaneously", "protocol": "(§1) When two doses of test compound were administered subcutaneously to mice in illustrative infections, the activity is measured as an ED50 value [effective does in mg./kg. to protect fifty percent of the test animals: See Warren Wick et al., J. Bacteriol. 81, 233-235 (1961)]. The ED50 values for these antibiotic A54556 factors are recorded in Table 15, which follows."}, "[7]": {"system": "Peptostreptococcus anaerobius 1428", "assay": "MIC, agar-dilution method", "format": "cell-based"}, "[8]": {"system": "Staphylococcus aureus 3055", "settings": "benzylpenicillin-susceptible"}, "[9]": {"system": "Staphylococcus aureus V41", "settings": "second test, Table 13, benzylpenicillin resistant"}, "[10]": {"system": "Streptococcus sp. (Group D) 9960", "assay": "Disc-plate sensitivity", "settings": "read-out: Zone diameter"}, "[11]": {"system": "Staphylococcus aureus 3074", "settings": "Table 12, benzylpenicillin resistant"}, "[12]": {"system": "Clostridium perfringens 81", "assay": "microbe, parasite or virus in culture", "format": "cell-based"}, "[13]": {"system": "Streptococcus sp. (Group D) X66", "assay": "Disc-plate sensitivity", "format": "cell-based", "settings": "second test, Table 13"}, "[14]": {"system": "Bacteroides vulgatis 1211", "assay": "MIC, agar-dilution method", "format": "cell-based"}, "[15]": {"system": "Staphylococcus aureus 3130", "settings": "Table 12, benzylpenicillin resistant, methicillin resistant"}, "[16]": {"assay": "Electrometric titration", "format": "physicochemical", "settings": "66 percent dimethylformamide in water", "description": "Antibiotic A54556 factor A is a tan, amorphous solid. […] As determined by electron impact and field desorption mass spectrometry, A54556 factor A has a molecular weight of 718."}, "[17]": {"system": "Bacteroides corrodens 1874", "assay": "MIC, agar-dilution method", "format": "cell-based", "settings": "Eikenella corrodens"}, "[18]": {"system": "anaerobic bacteria", "assay": "Activity against anaerobic bacteria", "format": "cell-based", "settings": "agar-dilution method"}, "[19]": {"system": "Streptococcus pneumoniae Park I"}, "[20]": {"system": "Bacteroides thetaiotaomicron 1438", "assay": "MIC, agar-dilution method", "format": "cell-based", "description": "(§2) Antibiotic A54556 factors A, B, C, D, E, F, G, and H have been tested and found to be active against a number of anaerobic bacteria, as recorded in Table 14, which follows, the MIC values having been determined by the agar-dilution method."}, "[21]": {"system": "Bacteroides fragilis 111", "assay": "MIC, agar-dilution method", "format": "cell-based", "description": "as §2"}, "[22]": {"system": "Propionibacterium acnes 79", "assay": "MIC, agar-dilution method", "format": "cell-based", "settings": "Cutibacterium acnes", "description": "as §2"}, "[23]": {"system": "Clostridium septicum 1128", "assay": "MIC, agar-dilution method", "format": "cell-based", "description": "as §2"}, "[24]": {"system": "Eubacterium aerofaciens 1235", "assay": "MIC, agar-dilution method", "format": "cell-based", "settings": "Collinsella aerofaciens", "description": "as §2"}, "[25]": {"system": "Bacteroides melaninogenicus 1856/28", "assay": "MIC, agar-dilution method", "format": "cell-based", "settings": "Prevotella intermedia", "description": "as §2"}, "[26]": {"system": "Peptostreptococcus intermedius 1264", "assay": "MIC, agar-dilution method", "format": "cell-based", "description": "as §2"}, "[27]": {"system": "Bacteroides fragilis 1936B", "assay": "MIC, agar-dilution method", "format": "cell-based", "description": "as §2"}, "[28]": {"system": "Bacteroides melaninogenicus 2736", "assay": "MIC, agar-dilution method", "format": "cell-based", "description": "as §2"}, "[29]": {"system": "Bacteroides fragilis 1877", "assay": "MIC, agar-dilution method", "format": "cell-based", "description": "as §2"}, "[30]": {"system": "Fusobacterium necrophorum 6054A", "assay": "MIC, agar-dilution method", "format": "cell-based", "description": "as §2"}, "[31]": {"system": "Clostridium difficile 2994", "assay": "MIC, agar-dilution method", "format": "cell-based", "settings": "Clostridioides difficile", "description": "as §2"}, "[32]": {"system": "Peptococcus asaccharolyticus 1302", "assay": "MIC, agar-dilution method", "format": "cell-based", "settings": "Peptoniphilus asaccharolyticus"}, "[33]": {"system": "experimental bacterial infections", "assay": "In vivo antimicrobial activity against experimental bacterial infections", "settings": "mice, subcutaneously", "protocol": "as §1"}, "[34]": {"settings": "30 mcg./disc, second test, Table 13"}, "[35]": {"settings": "30 mcg./disc, second test, Table 13, listed as A"}, "[36]": {"settings": "300 mcg./disc, second test, Table 13"}}, "note": "Several values for one entry are separate records, joined by “and”; a condition that tells them apart may be missing. Equal entries are not always repeated. Where two headings read alike, the source gives them in different places. Bridge positions count the residues as written; N and C are the ends. Square brackets hold non-standard residues; d marks the D form. Peptide text beside a SMILES is read from it. * marks the point of attachment. ξ: configuration not given here. Octatrienoyl(2E,4E,6E) = C/C=C/C=C/C=C/C(=O)*; ξPro(4ξ-Me) = CC1CNC(C(=O)O)C1; NMeA = CN[CH](C)C(=O)O", "data": [{"smiles": "C/C=C/C=C/C=C/C(=O)NC(Cc1ccccc1)C(=O)NC1COC(=O)C2CCCN2C(=O)C(C)NC(=O)C(C)N(C)C(=O)C2CC(C)CN2C1=O", "note": "(centres unmarked) [Factor A] ({Octatrienoyl(2E,4E,6E)}-FS[ξPro(4ξ-Me)][NMeA]AP; ester 2-C; configuration not given here)", "values": [{"measurement": "solubility in organic solvents", "setting": "[1]; lower alcohols (methyl, ethyl, isopropyl, n-propyl, n-butyl), acetone, ethyl acetate, tetrahydrofuran, pyridine, dimethyl sulfoxide", "value": "soluble"}, {"measurement": "solubility in water", "setting": "[1]; water", "value": "insoluble"}, {"measurement": "Zone diameter", "setting": "[2]; 30 mcg./disc", "value": 20, "unit": "mm."}, {"measurement": "Zone diameter", "setting": "[2]; 300 mcg./disc", "value": "22 mm. and 28 mm."}, {"measurement": "MIC", "setting": "[3]", "value": "> 128", "unit": "µg/mL"}, {"measurement": "Zone diameter", "setting": "[4]; 30 mcg./disc, Table 12", "value": 24.0, "unit": "mm."}, {"measurement": "Zone diameter", "setting": "[4]; [34]", "value": 25, "unit": "mm."}, {"measurement": "Zone diameter", "setting": "[4]; [35]", "value": 20, "unit": "mm."}, {"measurement": "Zone diameter", "setting": "[4]; 300 mcg./disc, Table 12", "value": 30.0, "unit": "mm."}, {"measurement": "Zone diameter", "setting": "[4]; [36]", "value": "30 mm. and 32 mm."}, {"measurement": "MIC", "setting": "[5]", "value": "> 128", "unit": "µg/mL"}, {"measurement": "ED50", "setting": "[6]", "value": "> 70", "unit": "mg/kg"}, {"measurement": "MIC", "setting": "[7]", "value": "> 128", "unit": "µg/mL"}, {"measurement": "Zone diameter", "setting": "[8]; 30 mcg./disc, Table 12", "value": 19.2, "unit": "mm."}, {"measurement": "Zone diameter", "setting": "[8]; [34]", "value": "19 mm. and 21 mm."}, {"measurement": "Zone diameter", "setting": "[8]; 300 mcg./disc, Table 12", "value": 24.3, "unit": "mm."}, {"measurement": "Zone diameter", "setting": "[8]; [36]", "value": 24, "unit": "mm."}, {"measurement": "Zone diameter", "setting": "[8]; 300 mcg./disc, second test, Table 13, listed as A", "value": 28, "unit": "mm."}, {"measurement": "Zone diameter", "setting": "[9]; 30 mcg./disc", "value": "20 mm. and 22 mm."}, {"measurement": "Zone diameter", "setting": "[9]; 300 mcg./disc", "value": "27 mm. and 33 mm."}, {"measurement": "zone of inhibition at 30 µg/disc", "setting": "[10]", "value": 22.4, "unit": "mm"}, {"measurement": "zone of inhibition at 300 µg/disc", "setting": "[10]", "value": 28, "unit": "mm"}, {"measurement": "Zone diameter", "setting": "[11]; 30 mcg./disc", "value": 18.3, "unit": "mm."}, {"measurement": "Zone diameter", "setting": "[11]; 300 mcg./disc", "value": 20.9, "unit": "mm."}, {"measurement": "MIC", "setting": "[12]", "value": "> 128", "unit": "µg/mL"}, {"measurement": "Zone diameter", "setting": "[13]; 30 mcg./disc, listed as A", "value": 28, "unit": "mm."}, {"measurement": "Zone diameter", "setting": "[13]; 300 mcg./disc", "value": 29, "unit": "mm."}, {"measurement": "zone of inhibition at 30 µg/disc", "setting": "[13]; Streptococcus, read-out: Zone diameter, 30 mcg./disc", "value": 23, "unit": "mm"}, {"measurement": "zone of inhibition at 300 µg/disc", "setting": "[13]; Streptococcus, read-out: Zone diameter, 300 mcg./disc", "value": 33, "unit": "mm"}, {"measurement": "MIC", "setting": "[14]", "value": "> 128", "unit": "µg/mL"}, {"measurement": "Zone diameter", "setting": "[15]; 30 mcg./disc", "value": 21.7, "unit": "mm."}, {"measurement": "Zone diameter", "setting": "[15]; 300 mcg./disc", "value": 25.5, "unit": "mm."}, {"measurement": "titratable groups", "setting": "[16]", "value": "no titratable groups"}, {"measurement": "MIC", "setting": "[17]", "value": "> 128", "unit": "µg/mL"}, {"measurement": "activity against a number of anaerobic bacteria", "setting": "[18]", "value": "active"}, {"measurement": "Zone diameter", "setting": "[19]; 30 mcg./disc, Table 12", "value": 26.0, "unit": "mm."}, {"measurement": "Zone diameter", "setting": "[19]; [35]", "value": "18 mm. and 22 mm."}, {"measurement": "Zone diameter", "setting": "[19]; 300 mcg./disc, Table 12", "value": 34.0, "unit": "mm."}, {"measurement": "Zone diameter", "setting": "[19]; [36]", "value": "33 mm. and 35 mm."}, {"measurement": "MIC", "setting": "[20]", "value": "> 128", "unit": "µg/mL"}, {"measurement": "MIC", "setting": "[21]", "value": "> 128", "unit": "µg/mL"}, {"measurement": "MIC", "setting": "[22]", "value": "> 128", "unit": "µg/mL"}, {"measurement": "MIC", "setting": "[23]", "value": "> 128", "unit": "µg/mL"}, {"measurement": "MIC", "setting": "[24]", "value": "> 128", "unit": "µg/mL"}, {"measurement": "MIC", "setting": "[25]", "value": "> 128", "unit": "µg/mL"}, {"measurement": "MIC", "setting": "[26]", "value": "> 128", "unit": "µg/mL"}, {"measurement": "MIC", "setting": "[27]", "value": "> 128", "unit": "µg/mL"}, {"measurement": "MIC", "setting": "[28]", "value": "> 128", "unit": "µg/mL"}, {"measurement": "MIC", "setting": "[29]", "value": "> 128", "unit": "µg/mL"}, {"measurement": "MIC", "setting": "[30]", "value": "> 128", "unit": "µg/mL"}, {"measurement": "MIC", "setting": "[31]", "value": "> 128", "unit": "µg/mL"}, {"measurement": "MIC", "setting": "[32]", "value": "> 128", "unit": "µg/mL"}, {"measurement": "in vivo antimicrobial activity against experimental bacterial infections", "setting": "[33]", "value": "have shown in vivo antimicrobial activity"}]}]}
